Laboratory results taken from patent publication US10905680B2, “Methods of treatment for cholestatic and fibrotic diseases” (Genfit, priority 2016, dated 2021).

Assays:
HSC = assay: Toxicity assays in HSC; type: cell-based, human; conditions: data not shown
[1] = test system: rat primary hepatic stellate cells (rHSC); assay: TGFβ1-induced expression of α-SMA protein in rat HSC (ELISA); type: cell-based; conditions: TGFβ1 3 ng/ml, 48 hours
Procedure: NTZ (A) or TZ (B) were added to serum-deprived rat HSC (rHSC) 1 hour before the activation with TGFβ1 (3 ng/ml). After 48 hours of incubation, the expression of α-SMA was measured by ELISA. The obtained values were transformed into percentage inhibition over TGFβ1 control. Data are presented as mean (triplicates)±standard deviation (SD). Statistical analyses were performed by one-way ANOVA followed by Bonferroni post-hoc tests, using Sigma Plot 11.0 software. [*: p<0.05; **: p<0.01; ***: p<0.001 (comparison versus TGFβ1 3 ng/mL group)]. The rat primary hepatic stellate cells (rHSC) (Innoprot) were cultured in STeCM medium (ScienCell cat #5301) that was supplemented with 2% fetal bovine serum (FBS, ScienCell cat #0010), 1% penicillin/streptomycin (ScienCell cat #0503) and stellate cell growth supplement (SteCGS; ScienCell cat #5352). For the activation experiments with TGFβ1, the rHSC were plated at a density of 10×10^3 cells per well in 96-well plates. The next day, cell culture medium was removed, and cells were washed with PBS (Invitrogen cat #14190). rHSC were deprived for 24 hours in serum-free and SteCGS-free medium. […] The level of α-SMA was measured using a Sandwich ELISA. […]

[2] = test system: Normal Human Cardiac Fibroblasts (ventricle) (NHCF-V); assay: TGFβ1-induced expression of α-SMA protein in human cardiac fibroblasts (ELISA); type: cell-based; conditions: concentration of 1 μM; TGFβ1 3 ng/ml, 48 hours
Procedure: NTZ (A) or TZ (B) were added to serum-deprived cardiac fibroblasts (NHCF) 1 hour before the activation with TGFβ1 (3 ng/ml). After 48 hours of incubation, the expression of α-SMA was measured by ELISA. The obtained values were transformed into percentage inhibition over TGFβ1 control. Data are presented as mean (triplicates)±standard deviation (SD). Statistical analyses were performed by one-way ANOVA followed by Bonferroni post-hoc tests, using Sigma Plot 11.0 software. [*: p<0.05; **: p<0.01; ***: p<0.001 (comparison versus TGFβ1 3 ng/mL group)].
The Normal Human Cardiac Fibroblasts (ventricle) (NHCF-V) (Lonza) were isolated from normal adult heart tissue. Cells were cultured in Fibroblast Basal Medium (FBM) (Lonza cat # CC-3131) that was supplemented with FGM™-3 BulletKit™ kit (Lonza cat # CC-4525). The complete medium contains 10% fetal bovine serum. For the activation experiments with TGFβ1, the NHCF-V were plated at a density of 6×10^3 cells per well in 96-well plates. The next day, cell-culture medium was removed, and cells were washed with PBS (Invitrogen cat #14190). NHCF were deprived for 24 hours in serum-free, insulin-free and rhFGF-B-free medium. […]
The level of α-SMA was measured using a Sandwich ELISA. […]

## O=C(Nc1ncc([N+](=O)[O-])s1)c1ccccc1O [TZ, 2-hydroxy-N-(5-nitro-2-thiazolyl)benzamide]
HSC
  toxicity or apoptosis of HSC: not due to toxicity or apoptosis
[1]
  α-SMA levels in TGFβ-activated HSC derived from rat: reduced
[2]
  antifibrotic effects (α-SMA) in normal human cardiac fibroblasts: significant antifibrotic effects
